The numbers were not newly measured in US20200338016A1, “COMBINATION BROAD-SPECTRUM ANTIBIOTIC PREPARATIONS FOR DRUG-RESISTANT PATHOGENS” (priority 2019, published 2020), which cites them from elsewhere.

In the series the test system is Mycobacterim tuberculosis. The note with it: ten strains of Mycobacterim tuberculosis, including six resistant to antibiotics.

`O=C(O[C@@H]1Cc2c(O)cc(O)cc2O[C@@H]1c1cc(O)c(O)c(O)c1)c1cc(O)c(O)c(O)c1` [EGCG, epigallocatechin gallate]: the concentration that kills is 1024 micrograms per milliliter.

In the case of `O=C(O)/C=C/c1ccc(O)c(O)c1` [caffeic acid], the concentration that kills is 1024 micrograms per milliliter.

Turning to `O=c1c(O)c(-c2ccc(O)c(O)c2)oc2cc(O)cc(O)c12` [quercetin], the concentration that kills is 1024 micrograms per milliliter.
